Experimental data from ChEMBL document CHEMBL2202997, “Ex vivo study of the vasorelaxant activity induced by phenanthrene derivatives isolated from Maxillaria densa” (J Nat Prod, 2012).
pEC50: −log10 of the molar value. Active and inactive are the calls of the source. The calls are words filed in the database; no cut-off is given here.

What was measured:
[1] = system: Aorta; test: Vasorelaxant activity in Wistar rat aorta without endothelium assessed as inhibition of norepinephrine-induced contraction relative to control; assay type: functional
[2] = system: Aorta; test: Vasorelaxant activity in Wistar rat aorta with endothelium assessed as inhibition of norepinephrine-induced contraction relative to control; assay type: functional
[3] = system: Aorta; test: Vasorelaxant activity in Wistar rat aorta without endothelium assessed as inhibition of norepinephrine-induced contraction; assay type: functional, tissue-based
[4] = system: Aorta; test: Vasorelaxant activity in Wistar rat aorta with endothelium assessed as inhibition of norepinephrine-induced contraction; assay type: functional, tissue-based
[5] = system: Aorta; test: Induction of relaxation in Wistar rat endothelium-denuded aorta in presence of potassium channel blocker TEA; assay type: functional, tissue-based
[6] = system: Aorta; test: Vasorelaxant activity in Wistar rat aorta without endothelium assessed as inhibition of extracellular Ca2+-induced contractions activated by potassium chloride-induced contraction relative to control; assay type: functional
[7] = system: Aorta; test: Vasorelaxant activity in Wistar rat aorta without endothelium assessed as inhibition of extracellular Ca2+-induced contractions activated by potassium chloride-induced contraction; assay type: functional, tissue-based
[8] = system: Aorta; test: Vasorelaxant activity in Wistar rat endothelium-denuded aorta assessed as inhibition of CaCl2-induced contraction; assay type: functional, tissue-based
[9] = system: Aorta; test: Vasorelaxant activity in Wistar rat endothelium-denuded aorta assessed as inhibition of FPL-64176-induced contraction at 11 to 63 uM; assay type: functional, tissue-based
[10] = system: Aorta; test: Induction of relaxation in Wistar rat endothelium-denuded aorta in presence of potassium channel blocker glibenclamide; assay type: functional, tissue-based
[11] = system: Aorta; test: Vasorelaxant activity in Wistar rat endothelium-denude aorta assessed as inhibition of norepinephrine-induced contraction in presence of soluble guanylyl cyclase inhibitor ODQ; assay type: functional, tissue-based

| Structure (SMILES) | pEC50 [4] | Efficacy [1] | Efficacy [2] | pEC50 [3] | inhibition [3] | inhibition [4] | Activity [5] | Efficacy [6] | pEC50 [7] | inhibition [8] | inhibition [9] | Activity [10] | inhibition [11] |
| --- | --- | --- | --- | --- | --- | --- | --- | --- | --- | --- | --- | --- | --- |
| C[N+](C)(C)CCOC(N)=O.[Cl-] [CARBACHOL] | 6.39 | – | 74.06% | – | – | – | – | – | – | – | – | – | – |
| COc1c(O)cc2cc(OC)c3cc(O)ccc3c2c1OC [GYMNOPUSIN] | 4.20 | 98.18% | 94% | 4.15 | Dose-dependent effect | Dose-dependent effect | inactive | 71.3% | 3.92 | Active | Dose-dependent effect | inactive | Active |
| COC(=O)C1=C(C)NC(C)=C(C(=O)OC)C1c1ccccc1[N+](=O)[O-] [NIFEDIPINE] | – | 97% | – | 5.37 | – | – | – | – | – | – | – | – | – |

Second part, led by results:

| pEC50 [4] | Structure (SMILES) | Efficacy [1] | Efficacy [2] | pEC50 [3] | inhibition [3] | inhibition [4] | Activity [5] | Efficacy [6] | pEC50 [7] | inhibition [8] | inhibition [9] | Activity [10] | inhibition [11] |
| --- | --- | --- | --- | --- | --- | --- | --- | --- | --- | --- | --- | --- | --- |
| 3.63 | COc1c(O)cc2cc(OC)c3cccc(O)c3c2c1OC [FIMBRIOL A] | 73.86% | 83.05% | 3.54 | Dose-dependent effect | Dose-dependent effect | – | – | – | – | – | – | – |
| 3.85 | COc1c(O)cc2c(c1OC)-c1ccc(O)cc1CC2 [ERIANTHRIDIN] | 82.4% | 85.47% | 3.78 | Dose-dependent effect | Dose-dependent effect | – | – | – | – | – | – | – |
